PubChem BioAssay (NCI)
Values joined by “and” are separate entries in the source; they are usually repeats but may differ in a detail not shown here. Equal values may be shown once.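 All cell lines were grown in 96-well plates and treated with compound for 48 hours. GI50 = concentration required for 50% inhibition of growth. At the TGI there is no net growth.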 Active and inactive are the calls of the source. No stated cut-off is given here; in the data, active means GI50 below about 0.43 µM; inactive means the rest.

The molecules below were run on MDA-MB-468 breast (assay: NCI tumour cell line growth inhibition, 48 h).

Compound | GI50 | TGI | outcome
CCCCCCC/C=C/[C@H]1O[C@]2(O)C(=O)C=C3C[C@@H](O[C@@H]4O[C@H](CO)[C@@H](O)C(O)[C@@H]4O)C[C@@H]3[C@H]2C=C1C (stereo partly drawn) | 3.42 µM | 11.4 µM | 
O=c1c2cccc(F)c2sc2c(N3CCNCC3)nc3ccccc3c12 | 1.46 µM | 3.1 µM | 
Nc1ccccc1NC(=O)c1ccc(CN2CCC/C(=C\c3ccccn3)C2=O)cc1 | 1.33 µM | 3.88 µM | 
CSc1ccc2c(c1)N(CCC1CCCCN1C)c1ccccc1S2 (stereo not drawn) | 1.78 µM | 3.92 µM | 
O=c1c2c(c3ccccc3n1-c1ccccc1)NC(=S)NC2c1ccc(Cl)cc1 (stereo not drawn) | 19 µM | > 100 µM | 
COc1cc(/C=C2\Oc3cc(OCCCN4CCCC4)ccc3C2=O)cc(OC)c1 | 2.93 µM | 13 µM | 
CCC(C)[C@H](NC(=O)NC(=O)NC(=O)CI)C(=O)OC (stereo partly drawn) | 3.54 µM | 12.6 µM | 
CCCC[n+]1c(/C=C\c2c(OC)cc(OC)cc2OC)ccc2ccccc21 | 0.241 µM | 1.38 µM | 
Cc1[nH]c(C(=O)Nc2ccccc2OC2CCNCC2)c(Cl)c1Cl | 0.93 µM | 1.9 µM | 
CC1=C(C(=O)Nc2ccc3[nH]ncc3c2)C(c2ccc(Cl)c(Cl)c2)CC(=O)N1 (stereo not drawn) | > 18 µM | > 25 µM | 
Clc1nc(Cl)c2c3c(sc2n1)CCCC3 | 2.1 µM |  | 
CCCCCCCCCCC/C=C\C[C@H](O)C/C=C1/C(=O)C=C[C@@H]1C/C=C\CCCC(=O)OC | 0.864 µM | 3.76 µM | 
Fc1ccc(-c2nn3c(-c4cc(C(F)(F)F)cc(C(F)(F)F)c4)nnc3s2)cc1 | 2.53 µM | > 50 µM | 
CCOC(=O)c1ccc2c(c1)nc(/C=C/c1ccc(Cl)cc1)n2-c1cc(C(C)(C)C)[nH]n1 | 4.68 µM | 95.6 µM | 
Cc1ccc(/C=C/C(=N/N=C(N)N)c2ccccc2)cc1 | 0.509 µM | 4.13 µM | 
C=C1CC[C@@H]2[C@](C)(COC(C)=O)[C@H](OC(C)=O)CC[C@@]2(C)[C@@H]1CC(Nc1ccc(S(=O)(=O)Nc2cc(C)on2)cc1)C1=CCOC1=O (stereo partly drawn) | 1.49 µM | 3.29 µM | 
COC(C(=O)C(O)C(C)O)C1Cc2cc3cc(OC4CC(OC5CC(O)C(O)C(C)O5)C(O)C(C)O4)c(C)c(O)c3c(O)c2C(=O)C1OC1CC(OC2CC(O)C(OC3CC(C)(O)C(O)C(C)O3)C(C)O2)C(O)C(C)O1 (stereo not drawn) |  |  | inactive
CCN(Cc1ccccc1Cl)c1ccc(CO)c(Cl)c1 |  | 0.116 µM | 
O=C1C(Nc2ccc(Br)cc2)=C(I)C(=O)c2ncccc21 | 0.97 µM | 1.93 µM | 
COc1cccc(-n2cc(-c3nc(Nc4cc(C)[nH]n4)c4ccccc4n3)nn2)c1 | 4.32 µM | 15.7 µM | 
Nc1nc2c(nnn2C2OC(CO)C(O)C2O)c(=O)[nH]1 (stereo not drawn) | 0.488 µM | 5.37 µM | 
CN1CC[C@]2(c3cccc(O)c3)CC(=O)/C(=C/c3ccccc3)[C@H]1C2 | 2.19 µM | 6.2 µM | 

Compound | GI50 | TGI | outcome
O=C(N=Nc1c(O)[nH]c2ccccc12)c1oc2ccccc2c1CN1CCN(c2ccccc2)CC1 | 1.24 µM | 3.89 µM | 
COc1cc2nc(-c3ccc(Cl)cc3)cc(OCCCN3CCCC3)c2cc1OC | 1.28 µM | 3.11 µM | 
O=C(CCCCCCN1CC(=O)N2[C@@H](c3cccc(Br)c3)c3[nH]c4ccccc4c3C[C@H]2C1=O)NO | 2.09 µM | 5.47 µM | 
Clc1cc2c(nn1)Nc1ccccc1S2 | > 100 µM | > 100 µM | 
Cc1cc2nc3ccc(=[N+](C)C)cc-3sc2cc1N | 0.455 µM and 0.618 µM | 2.18 µM and 3.82 µM | 
CN(C)CCC=C1c2ccccc2C(C)(C)c2ccccc21 | 2.59 µM | 14 µM | 
NC1CCC(Nc2nc(NCc3cc(Cl)ccc3O)c3ncn(C4CCCC4)c3n2)CC1 (stereo not drawn) | 0.158 µM | 0.468 µM | 
O=C(O)C1C2C=CC(C2)C1C(=O)O (stereo not drawn) | > 100 µM | > 100 µM | 
CC[C@@H](C(=O)[C@H](C)[C@H](O)[C@@H](C)[C@H]1O[C@H]([C@@H](CC)C(=O)O)CC[C@H]1C)C1O[C@]2(C=C[C@@H](O)[C@]3(CC[C@@](C)([C@H]4CC[C@](O)(CC)[C@H](C)O4)O3)O2)[C@H](C)C[C@@H]1C (stereo partly drawn) | 0.194 µM | 1.85 µM | 
Nc1ccc(-c2nnc(SCc3ccc(O)c4ncccc34)o2)cc1 | 0.0387 µM | 1.16 µM | 
COc1ccc(-c2nc(Nc3ccc(-c4nc5ccccc5[nH]4)cc3)nc(N3CCOCC3)n2)cc1 | 2.92 µM | 7.65 µM | 
COc1ccc(-c2nn(-c3cccc(NC(=O)Nc4ccccc4)c3)cc2-c2ccncc2)cc1Cl | 2.26 µM | 6.43 µM | 
CO[C@]12C=C/C(=C(/C(=O)OCc3cccnc3)C(=O)CCCCCCCC[C@@]3(OC)C=C/C(=C(/C(=O)OCc4cccnc4)C(=O)CCCCCCCC1)O3)O2 | 0.919 µM | 2.3 µM | 
CC(C)(CCN=C(N)Nc1ccccn1)c1ccc(C(F)(F)F)cc1 | 7.07 µM | 22.3 µM | 
C=C1CCC2C3(C)COC(c4c(OC)cccc4OC)OC3CCC2(C)C1C/C=C1/C(=O)OCC1O (stereo not drawn) | 1.47 µM | 3.35 µM | 
CNc1cc2nc3cc(NC)c(C)cc3cc2cc1C | 0.242 µM | 1.94 µM | 
Cc1cccc2nc3cccc(C(=O)NCCNCCNCCNC(=O)c4cccc5nc6cccc(C)c6nc45)c3nc12 | 0.0172 µM | 1.02 µM | 
COC(=O)c1ccc(NC2=C/C(=N/S(=O)(=O)c3ccc(C(=O)O)cc3)c3ccccc3C2=O)cc1 | 1.71 µM | 4.04 µM | 
O=[N+]([O-])c1ccc(Sc2nc(Cl)nc(NC3CCCC3)n2)cc1 | 2.1 µM | 7.13 µM | 
CCCCCc1cc[n+](CC(=O)c2ccc([N+](=O)[O-])cc2)cc1 | 2.17 µM | 8.06 µM | 
c1ccc(Nc2nc(-c3ccccn3)cs2)nc1 | 1.13 µM | 11.5 µM | 
